Measured values taken from US11208412B2 (DAEGU-GYEONGBUK MEDICAL INNOVATION FOUNDATION, priority 2017, dated 2021).

Key:
Assay in all cases: Kinase selectivity, DiscoverX scanMAX Kinase assay panel (% control)
Assay type in all cases: binding
[1] = target: T1, kinases of the scanMAX Kinase assay panel (Homo sapiens, UniProt Q16584); conditions: MLK3; 1 uM
T1 construct: purchased DiscoverX Co. (contract measurement) scanMAX Kinase assay panel
Outline: (§1)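 Compounds tested at 1 uM against the scanMAX kinase panel. Signal expressed as % control = (compound − positive control)/(DMSO negative control − positive control) × 100, where positive control = 0% and DMSO = 100%; below 35% counted as activity on that kinase.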

[2] = target: T2, kinases of the scanMAX Kinase assay panel (Homo sapiens, UniProt P45985); conditions: MEK4; 1 uM
T2 construct: purchased DiscoverX Co. (contract measurement) scanMAX Kinase assay panel
T2 sequence (P45985 1-399): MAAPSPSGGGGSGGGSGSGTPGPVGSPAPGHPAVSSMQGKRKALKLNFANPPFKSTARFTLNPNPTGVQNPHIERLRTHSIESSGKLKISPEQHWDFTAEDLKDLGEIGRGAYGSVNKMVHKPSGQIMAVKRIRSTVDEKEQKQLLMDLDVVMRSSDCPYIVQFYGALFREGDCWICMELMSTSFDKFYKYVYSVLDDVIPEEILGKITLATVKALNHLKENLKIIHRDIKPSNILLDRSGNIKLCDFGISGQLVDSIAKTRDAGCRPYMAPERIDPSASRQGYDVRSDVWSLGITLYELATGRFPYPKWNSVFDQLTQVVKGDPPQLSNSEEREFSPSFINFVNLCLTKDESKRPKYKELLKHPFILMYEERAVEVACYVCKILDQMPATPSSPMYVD
Outline: as §1

[3] = target: T3, kinases of the scanMAX Kinase assay panel (Homo sapiens, UniProt Q13188); conditions: MST2; 1 uM
T3 construct: purchased DiscoverX Co. (contract measurement) scanMAX Kinase assay panel
T3 sequence (Q13188 1-491): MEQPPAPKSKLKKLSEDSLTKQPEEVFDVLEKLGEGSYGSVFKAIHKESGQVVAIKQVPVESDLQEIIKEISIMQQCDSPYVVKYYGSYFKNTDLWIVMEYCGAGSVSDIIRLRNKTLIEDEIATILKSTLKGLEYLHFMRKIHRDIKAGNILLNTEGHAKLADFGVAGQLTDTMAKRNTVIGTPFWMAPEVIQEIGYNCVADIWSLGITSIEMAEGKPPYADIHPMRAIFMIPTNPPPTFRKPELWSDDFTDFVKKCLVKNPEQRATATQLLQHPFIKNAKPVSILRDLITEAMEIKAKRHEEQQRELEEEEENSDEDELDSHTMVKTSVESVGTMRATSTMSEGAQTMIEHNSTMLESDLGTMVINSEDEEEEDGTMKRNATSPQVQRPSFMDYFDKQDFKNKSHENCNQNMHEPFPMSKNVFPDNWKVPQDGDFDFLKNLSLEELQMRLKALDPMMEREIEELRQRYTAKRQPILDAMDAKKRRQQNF
Outline: as §1

[4] = target: T4, kinases of the scanMAX Kinase assay panel (Homo sapiens, UniProt Q9Y2K2); conditions: QSK; 1 uM
T4 construct: purchased DiscoverX Co. (contract measurement) scanMAX Kinase assay panel
Outline: as §1

[5] = target: T5, kinases of the scanMAX Kinase assay panel (Homo sapiens, UniProt P11362); conditions: FGFR1; 1 uM
T5 construct: purchased DiscoverX Co. (contract measurement) scanMAX Kinase assay panel
Outline: as §1

[6] = target: T6, kinases of the scanMAX Kinase assay panel (Homo sapiens, UniProt Q05655); conditions: PRKCD; 1 uM
T6 construct: purchased DiscoverX Co. (contract measurement) scanMAX Kinase assay panel
Outline: as §1

[7] = target: T7, kinases of the scanMAX Kinase assay panel (Homo sapiens, UniProt Q9BX84); conditions: kinase TRPM6; 1 uM in DMSO
T7 construct: purchased DiscoverX Co. (contract measurement) scanMAX Kinase assay panel
Outline: as §1

[8] = target: T8, kinases of the scanMAX Kinase assay panel (Homo sapiens, UniProt P08631); conditions: HCK; 1 uM
T8 construct: purchased DiscoverX Co. (contract measurement) scanMAX Kinase assay panel
Outline: as §1

[9] = target: T9, kinases of the scanMAX Kinase assay panel (Homo sapiens, UniProt P31749); conditions: AKT1; 1 uM
T9 construct: purchased DiscoverX Co. (contract measurement) scanMAX Kinase assay panel
Outline: as §1

[10] = target: T10, kinases of the scanMAX Kinase assay panel (Homo sapiens, UniProt Q13976); conditions: PRKG1; 1 uM
T10 construct: purchased DiscoverX Co. (contract measurement) scanMAX Kinase assay panel
T10 sequence (Q13976 1-671): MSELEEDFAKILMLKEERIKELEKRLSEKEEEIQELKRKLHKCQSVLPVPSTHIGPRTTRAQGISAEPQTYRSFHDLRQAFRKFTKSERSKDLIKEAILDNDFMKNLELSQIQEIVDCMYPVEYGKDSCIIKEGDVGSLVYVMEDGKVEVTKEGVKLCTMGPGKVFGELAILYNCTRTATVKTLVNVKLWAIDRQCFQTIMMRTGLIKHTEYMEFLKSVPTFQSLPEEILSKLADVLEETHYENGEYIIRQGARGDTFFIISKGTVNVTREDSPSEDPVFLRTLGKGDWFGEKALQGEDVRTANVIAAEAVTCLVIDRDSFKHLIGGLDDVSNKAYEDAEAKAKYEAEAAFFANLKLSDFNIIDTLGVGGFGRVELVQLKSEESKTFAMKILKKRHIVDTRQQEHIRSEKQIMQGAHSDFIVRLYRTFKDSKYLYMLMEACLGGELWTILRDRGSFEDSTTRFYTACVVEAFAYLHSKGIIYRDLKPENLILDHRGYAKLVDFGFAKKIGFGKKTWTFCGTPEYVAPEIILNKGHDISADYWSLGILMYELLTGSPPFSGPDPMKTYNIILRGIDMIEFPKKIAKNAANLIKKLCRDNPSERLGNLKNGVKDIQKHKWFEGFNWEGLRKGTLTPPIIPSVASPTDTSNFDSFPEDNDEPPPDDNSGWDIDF
Outline: as §1

[11] = target: T11, kinases of the scanMAX Kinase assay panel (Homo sapiens, UniProt Q9UQB9); conditions: AURKC; 1 uM
T11 construct: purchased DiscoverX Co. (contract measurement) scanMAX Kinase assay panel
T11 sequence (Q9UQB9 1-309): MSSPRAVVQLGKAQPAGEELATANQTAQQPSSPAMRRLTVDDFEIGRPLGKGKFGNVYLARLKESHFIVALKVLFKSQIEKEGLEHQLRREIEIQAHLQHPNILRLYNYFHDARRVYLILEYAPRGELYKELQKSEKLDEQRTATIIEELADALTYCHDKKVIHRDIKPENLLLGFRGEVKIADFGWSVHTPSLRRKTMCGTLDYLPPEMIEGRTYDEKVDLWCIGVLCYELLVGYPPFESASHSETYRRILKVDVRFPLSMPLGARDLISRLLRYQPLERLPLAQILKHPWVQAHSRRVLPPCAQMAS
Outline: as §1

T9 sequence (P31749 whole entry): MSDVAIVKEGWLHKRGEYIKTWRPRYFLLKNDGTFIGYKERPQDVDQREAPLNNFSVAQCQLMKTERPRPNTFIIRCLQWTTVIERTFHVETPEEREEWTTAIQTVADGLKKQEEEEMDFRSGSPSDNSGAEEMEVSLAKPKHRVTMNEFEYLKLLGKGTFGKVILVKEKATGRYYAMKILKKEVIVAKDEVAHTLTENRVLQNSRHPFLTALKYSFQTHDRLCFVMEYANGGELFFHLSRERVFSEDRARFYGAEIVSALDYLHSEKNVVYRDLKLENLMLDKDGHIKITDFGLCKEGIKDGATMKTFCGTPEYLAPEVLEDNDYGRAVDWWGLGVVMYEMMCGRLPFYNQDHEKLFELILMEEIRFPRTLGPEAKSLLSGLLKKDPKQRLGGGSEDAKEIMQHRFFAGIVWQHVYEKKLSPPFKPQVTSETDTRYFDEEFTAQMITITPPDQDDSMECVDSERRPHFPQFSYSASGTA
T7 sequence (Q9BX84 whole entry): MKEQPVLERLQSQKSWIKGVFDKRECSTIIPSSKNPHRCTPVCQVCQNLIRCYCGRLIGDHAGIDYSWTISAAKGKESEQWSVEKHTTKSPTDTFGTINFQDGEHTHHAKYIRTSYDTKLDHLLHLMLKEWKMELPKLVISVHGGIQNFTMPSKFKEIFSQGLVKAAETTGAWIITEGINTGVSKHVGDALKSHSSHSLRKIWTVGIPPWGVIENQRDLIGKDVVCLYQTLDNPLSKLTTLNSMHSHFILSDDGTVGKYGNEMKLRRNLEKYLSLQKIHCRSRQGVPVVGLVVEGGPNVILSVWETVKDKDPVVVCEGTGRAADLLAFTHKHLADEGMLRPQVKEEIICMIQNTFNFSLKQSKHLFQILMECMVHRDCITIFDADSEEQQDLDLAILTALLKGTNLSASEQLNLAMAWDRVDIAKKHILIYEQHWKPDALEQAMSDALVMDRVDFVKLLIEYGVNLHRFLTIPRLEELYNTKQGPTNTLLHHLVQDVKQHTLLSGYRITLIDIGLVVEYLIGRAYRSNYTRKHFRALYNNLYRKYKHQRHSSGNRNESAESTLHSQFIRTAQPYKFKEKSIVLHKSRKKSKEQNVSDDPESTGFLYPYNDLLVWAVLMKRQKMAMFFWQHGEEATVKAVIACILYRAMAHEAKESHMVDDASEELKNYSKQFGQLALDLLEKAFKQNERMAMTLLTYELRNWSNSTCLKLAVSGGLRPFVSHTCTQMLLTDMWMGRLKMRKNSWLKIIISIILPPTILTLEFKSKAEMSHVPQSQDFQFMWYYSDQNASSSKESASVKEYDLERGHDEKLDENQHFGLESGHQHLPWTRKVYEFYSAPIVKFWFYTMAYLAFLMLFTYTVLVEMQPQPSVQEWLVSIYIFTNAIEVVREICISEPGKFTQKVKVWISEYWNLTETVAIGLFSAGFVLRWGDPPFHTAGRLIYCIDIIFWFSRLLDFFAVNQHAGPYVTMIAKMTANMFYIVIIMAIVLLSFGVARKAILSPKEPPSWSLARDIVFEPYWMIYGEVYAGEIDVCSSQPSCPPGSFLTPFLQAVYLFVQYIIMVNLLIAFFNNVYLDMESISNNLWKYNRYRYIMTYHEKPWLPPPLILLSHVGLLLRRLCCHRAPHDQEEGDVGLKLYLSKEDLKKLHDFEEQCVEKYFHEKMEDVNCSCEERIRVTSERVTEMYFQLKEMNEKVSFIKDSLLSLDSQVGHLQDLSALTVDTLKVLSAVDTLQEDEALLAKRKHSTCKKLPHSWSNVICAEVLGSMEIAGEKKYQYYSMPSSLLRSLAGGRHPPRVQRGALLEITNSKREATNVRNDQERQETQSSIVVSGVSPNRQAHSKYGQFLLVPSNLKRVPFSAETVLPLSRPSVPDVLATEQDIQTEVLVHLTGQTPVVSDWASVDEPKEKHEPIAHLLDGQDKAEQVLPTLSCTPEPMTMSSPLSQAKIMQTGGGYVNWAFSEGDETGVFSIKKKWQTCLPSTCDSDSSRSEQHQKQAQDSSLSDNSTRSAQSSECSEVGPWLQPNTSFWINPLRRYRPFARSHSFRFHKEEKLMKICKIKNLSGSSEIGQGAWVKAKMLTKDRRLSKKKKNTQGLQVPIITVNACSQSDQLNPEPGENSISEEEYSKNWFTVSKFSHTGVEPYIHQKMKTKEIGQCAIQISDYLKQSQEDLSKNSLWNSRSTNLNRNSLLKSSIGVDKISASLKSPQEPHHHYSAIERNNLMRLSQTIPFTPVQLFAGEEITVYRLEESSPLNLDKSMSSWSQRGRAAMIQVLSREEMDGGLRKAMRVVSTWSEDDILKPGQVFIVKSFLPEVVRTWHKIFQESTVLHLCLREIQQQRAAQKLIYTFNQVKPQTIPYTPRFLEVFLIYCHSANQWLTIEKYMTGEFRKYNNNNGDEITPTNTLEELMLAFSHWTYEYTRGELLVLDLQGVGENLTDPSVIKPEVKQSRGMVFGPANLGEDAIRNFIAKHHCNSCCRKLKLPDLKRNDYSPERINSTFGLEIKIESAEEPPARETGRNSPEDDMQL
T8 sequence (P08631 whole entry): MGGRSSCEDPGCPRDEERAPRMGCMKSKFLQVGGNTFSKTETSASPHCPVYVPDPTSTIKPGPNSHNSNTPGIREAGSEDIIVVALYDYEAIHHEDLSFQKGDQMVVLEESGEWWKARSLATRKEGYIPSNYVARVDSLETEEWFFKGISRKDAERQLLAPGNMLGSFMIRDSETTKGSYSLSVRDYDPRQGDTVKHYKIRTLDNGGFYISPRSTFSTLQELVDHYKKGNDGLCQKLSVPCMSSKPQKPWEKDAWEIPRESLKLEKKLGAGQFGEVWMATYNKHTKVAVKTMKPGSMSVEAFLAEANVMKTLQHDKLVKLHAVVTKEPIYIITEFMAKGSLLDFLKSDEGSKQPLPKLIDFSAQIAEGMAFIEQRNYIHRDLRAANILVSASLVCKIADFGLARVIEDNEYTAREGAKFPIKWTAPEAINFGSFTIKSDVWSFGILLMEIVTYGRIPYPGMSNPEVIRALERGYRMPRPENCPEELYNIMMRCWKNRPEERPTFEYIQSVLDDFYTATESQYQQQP
T4 sequence (Q9Y2K2 whole entry): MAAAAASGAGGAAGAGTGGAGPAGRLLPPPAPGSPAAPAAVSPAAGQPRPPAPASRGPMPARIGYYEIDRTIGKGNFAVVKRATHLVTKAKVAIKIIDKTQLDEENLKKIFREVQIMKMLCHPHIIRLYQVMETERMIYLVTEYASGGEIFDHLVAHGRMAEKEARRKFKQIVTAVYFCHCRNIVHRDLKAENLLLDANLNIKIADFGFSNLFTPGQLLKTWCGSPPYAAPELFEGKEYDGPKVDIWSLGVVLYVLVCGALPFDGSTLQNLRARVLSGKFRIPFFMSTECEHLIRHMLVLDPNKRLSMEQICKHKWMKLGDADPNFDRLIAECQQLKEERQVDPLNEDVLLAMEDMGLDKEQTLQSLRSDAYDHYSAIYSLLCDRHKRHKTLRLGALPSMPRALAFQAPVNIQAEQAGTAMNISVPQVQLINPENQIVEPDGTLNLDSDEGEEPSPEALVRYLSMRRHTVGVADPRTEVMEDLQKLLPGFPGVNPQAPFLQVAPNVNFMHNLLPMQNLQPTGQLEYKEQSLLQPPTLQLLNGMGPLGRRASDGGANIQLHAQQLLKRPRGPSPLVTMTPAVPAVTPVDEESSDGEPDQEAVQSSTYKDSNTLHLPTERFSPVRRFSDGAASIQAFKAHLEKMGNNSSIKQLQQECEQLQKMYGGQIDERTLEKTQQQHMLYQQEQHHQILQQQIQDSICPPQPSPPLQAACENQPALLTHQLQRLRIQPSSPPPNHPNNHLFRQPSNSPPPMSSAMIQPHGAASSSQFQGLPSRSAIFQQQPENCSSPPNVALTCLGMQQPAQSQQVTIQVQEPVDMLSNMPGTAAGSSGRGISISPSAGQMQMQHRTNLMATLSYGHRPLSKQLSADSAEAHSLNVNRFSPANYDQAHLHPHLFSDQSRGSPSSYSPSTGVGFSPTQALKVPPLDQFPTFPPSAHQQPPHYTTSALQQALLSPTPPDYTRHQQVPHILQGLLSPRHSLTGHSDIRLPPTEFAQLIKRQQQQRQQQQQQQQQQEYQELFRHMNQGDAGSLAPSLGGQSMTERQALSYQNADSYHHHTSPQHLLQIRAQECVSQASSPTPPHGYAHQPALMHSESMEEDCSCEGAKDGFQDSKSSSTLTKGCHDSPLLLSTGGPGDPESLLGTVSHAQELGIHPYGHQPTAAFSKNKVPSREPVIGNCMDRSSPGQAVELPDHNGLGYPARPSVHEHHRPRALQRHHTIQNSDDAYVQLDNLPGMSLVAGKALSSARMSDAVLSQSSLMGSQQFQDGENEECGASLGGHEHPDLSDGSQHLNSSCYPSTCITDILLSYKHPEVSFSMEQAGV
T6 sequence (Q05655 whole entry): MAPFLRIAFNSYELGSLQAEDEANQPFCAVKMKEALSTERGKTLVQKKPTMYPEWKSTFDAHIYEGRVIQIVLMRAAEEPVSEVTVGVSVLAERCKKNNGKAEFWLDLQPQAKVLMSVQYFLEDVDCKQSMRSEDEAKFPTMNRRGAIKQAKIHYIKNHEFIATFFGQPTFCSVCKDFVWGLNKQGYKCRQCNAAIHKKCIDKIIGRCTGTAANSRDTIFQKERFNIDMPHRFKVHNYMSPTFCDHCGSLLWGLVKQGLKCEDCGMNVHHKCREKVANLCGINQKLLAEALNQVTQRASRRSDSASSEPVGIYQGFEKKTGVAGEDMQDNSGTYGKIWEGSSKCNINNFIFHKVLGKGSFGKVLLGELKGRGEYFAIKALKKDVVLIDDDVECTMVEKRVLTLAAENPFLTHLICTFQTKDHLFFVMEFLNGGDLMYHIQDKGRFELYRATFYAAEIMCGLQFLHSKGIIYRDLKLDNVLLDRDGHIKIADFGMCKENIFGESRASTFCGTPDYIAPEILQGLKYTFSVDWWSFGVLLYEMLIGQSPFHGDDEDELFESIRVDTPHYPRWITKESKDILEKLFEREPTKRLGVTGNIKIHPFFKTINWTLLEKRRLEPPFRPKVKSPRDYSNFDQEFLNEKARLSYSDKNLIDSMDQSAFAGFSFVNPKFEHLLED

| SMILES | remaining binding at 1 µM [1] | remaining binding at 1 µM [2] | remaining binding at 1 µM [3] | remaining binding at 1 µM [4] | remaining binding at 1 µM [5] | remaining binding at 1 µM [6] | remaining binding at 1 µM [7] | remaining binding at 1 µM [8] | remaining binding at 1 µM [9] | remaining binding at 1 µM [10] | remaining binding at 1 µM [11] |
| --- | --- | --- | --- | --- | --- | --- | --- | --- | --- | --- | --- |
| CNc1nc(Nc2ccc(C(=O)N3CCOCC3)cc2OC)nc2[nH]cc(C#N)c12 [Example 1, 2-((2-methoxy-4-(morpholine-4-carbonyl)phenyl)amino)-4-(methylamino)-7H-pyrrolo[2,3-d]pyrimidine-5-carbonitrile] | 78% | 0% | 92% | 79% | 97% | 100% | 88% | 95% | 83% | 83% | 100% |
| CC1(Nc2nc(Nc3cnn([C@H]4CCN(C5COC5)C[C@@H]4F)c3Cl)nc3[nH]cc(C#N)c23)CC1 [Example 52, 2-((5-chloro-1-((3S,4S)-3-fluoro-1-(oxetane-3-yl)piperidine-4-yl)-1H-pyrazole-4-yl)amino)((1-methylcyclopropyl)amino)-7H-pyrrolo[2,3-d]pyrimidine-5-carbonitrile] | 3.1% | 0% | 15% | 87% | 42% | 81% | 93% | 11% | 100% | 79% | 7.1% |
| CCNc1nc(Nc2ccc(C(=O)N3CCC(N4CCOCC4)CC3)cc2OC)nc2[nH]cc(C(F)(F)F)c12 [Example 104, (4-((4-(ethylamino)-5-(trifluoromethyl)-7H-pyrrolo[2,3-d]pyrimidine-2-yl)amino)-3-methoxyphenyl)(4-morpholinopiperidine-1-yl)methanone] | 86% | 16% | 71% | 97% | 100% | 100% | 98% | 100% | 100% | 84% | 100% |
